Assays:
rat's sciatic nerve = test: Local anesthetic effect after injection near the rat sciatic nerve (von Frey stimulation; Postural Extensor Thrust for motor function); format: in vivo; conditions: SD rats, 0.5 mL near sciatic nerve, compounds 20 mmol/mL; for Duration of motor block: Postural Extensor Thrust; for Duration of motor block / Duration of sensory block: levobupivacaine 0.75%, lidocaine 2%; for Local anesthesia onset time: levobupivacaine 0.75% (22 mmol/L), lidocaine 2% (74 mmol/L); for Duration of sensory block: von Frey
Method: Dosage: for lidocaine group, lidocaine was formulated with distilled water into a solution at the concentration of 2% (74 mmol/L); for levobupivacaine group, levobupivacaine was formulated with distilled water into a solution at the concentration of 0.75% (22 mmol/L); the compound of the present invention was formulated with distilled water into a solution at the concentration of […].
The injection volume for each rat was 0.5 mL, which was guided by a nerve locator and injected near the rat's sciatic nerve. Using von Frey stimulator, the rats were stimulated the soles of the feet in the injected side, to observe the effect of local anesthesia. Meanwhile, Postural Extensor Thrust (PET) was used to evaluate the motor function of the rat: the rat was lifted vertically and the hindlimb in the injected side pedaled on the platform of the electronic balance. […] When the limb was completely paralyzed, the reading was the limb's own weight, about 20 g. If the measured value was more than half of the difference between the baseline and the limb weight, the motor function was regarded as recovery, and if the value was […], the motor function was regarded as loss.

back skin of SD rat = test: Local anesthetic effect by subcutaneous infiltration (back skin, Von Frey fiber 100 g); format: in vivo; conditions: SD rats, 0.5 mL subcutaneous in saline; compounds 6 mmol/L, controls 0.75% (22 mmol/L) and 2% (74 mmol/L)
Method: After the back of SD rat weighing 250-300 g (half female and half male) was shaved and disinfected, a circle with a diameter of about 1.5 cm was drawn on the side of the exposed back, and the circle is divided into 6 equal parts. […] Among the Von Frey fiber yarns, the one with a strength of 100 g was bound to the needle for local skin stimulation. One minute After the drug was injected, the above method was used to stimulate in 6 divisions. […] If back skin contraction was observed, the local anesthetic effect was considered as loss. […] Each compound was tested with 10 rats.

CCCCC[N+](CCCCCO)(CCCCCCN1CCCCC1C(=O)Nc1c(C)cccc1C)CC(=O)Nc1c(C)cccc1C.[Br-] (stereo not shown) [Example 12 product]
Duration of motor block (rat's sciatic nerve): 11 h
Local anesthesia onset time (rat's sciatic nerve): 5 min
Duration of sensory block (rat's sciatic nerve): 42 h
Duration of local anesthesia (median) (back skin of SD rat): 66 h
Local anesthesia onset time (median) (back skin of SD rat): 3 min

CCCCC[N+](CCCCCCN1CCCCC1C(=O)Nc1c(C)cccc1C)(CCCOC)CC(=O)Nc1c(C)cccc1C.[Br-] (stereo not shown) [Example 23 product]
Duration of motor block (rat's sciatic nerve): 14 h
Local anesthesia onset time (rat's sciatic nerve): 5 min
Duration of sensory block (rat's sciatic nerve): 54 h
Duration of local anesthesia (median) (back skin of SD rat): 83 h
Local anesthesia onset time (median) (back skin of SD rat): 2 min

CCSCC[N+](CCO)(CCCCCCN1CCCC1C(=O)Nc1c(C)cccc1C)CC(=O)Nc1c(C)cccc1C (stereo not shown) [Example 62 product]
Duration of motor block (rat's sciatic nerve): 21 h
Local anesthesia onset time (rat's sciatic nerve): 5 min
Duration of sensory block (rat's sciatic nerve): 51 h
Duration of local anesthesia (median) (back skin of SD rat): 88 h
Local anesthesia onset time (median) (back skin of SD rat): 1 min

CCCCC[N+](CCCCC)(CCCN1CCCCC1C(=O)Nc1c(C)cccc1C)CC(=O)Nc1c(C)cccc1C.Cl.[Br-] (stereo not shown) [Example 10 product]
Duration of motor block (rat's sciatic nerve): 19 h
Local anesthesia onset time (rat's sciatic nerve): 3 min
Duration of sensory block (rat's sciatic nerve): 25 h
Duration of local anesthesia (median) (back skin of SD rat): 56 h
Local anesthesia onset time (median) (back skin of SD rat): 1 min

Cc1cccc(C)c1NC(=O)C[N+](CCCCCCCS)(CCCCCCCN1CCCCC1C(=O)Nc1c(C)cccc1C)CCCCCC(=O)O (stereo not shown) [Example 45 product]
Duration of motor block (rat's sciatic nerve): 20 h
Local anesthesia onset time (rat's sciatic nerve): 3 min
Duration of sensory block (rat's sciatic nerve): 58 h
Duration of local anesthesia (median) (back skin of SD rat): 89 h
Local anesthesia onset time (median) (back skin of SD rat): 1 min

COCC[N+](CCCCO)(CCCCCCN1CCCCC1C(=O)Nc1c(C)cccc1C)CC(=O)Nc1c(C)cccc1C (stereo not shown) [Example 36 product]
Duration of motor block (rat's sciatic nerve): 21 h
Local anesthesia onset time (rat's sciatic nerve): 5 min
Duration of sensory block (rat's sciatic nerve): 52 h
Duration of local anesthesia (median) (back skin of SD rat): 81 h
Local anesthesia onset time (median) (back skin of SD rat): 1 min

Cc1cccc(C)c1NC(=O)C[N+]1(CCCCCCN2CCCCC2C(=O)Nc2c(C)cccc2C)CCOC(C)C1 (stereo not shown) [Example 54 product]
Duration of motor block (rat's sciatic nerve): 15 h
Local anesthesia onset time (rat's sciatic nerve): 5 min
Duration of sensory block (rat's sciatic nerve): 66 h
Duration of local anesthesia (median) (back skin of SD rat): 69 h
Local anesthesia onset time (median) (back skin of SD rat): 2 min

CCCCC[N+](CCCCO)(CCCCCCN1CCC1C(=O)Nc1c(C)cccc1C)CC(=O)Nc1c(C)cccc1C (stereo not shown) [Example 64 product]
Duration of motor block (rat's sciatic nerve): 13 h
Local anesthesia onset time (rat's sciatic nerve): 3 min
Duration of sensory block (rat's sciatic nerve): 67 h
Duration of local anesthesia (median) (back skin of SD rat): 69 h
Local anesthesia onset time (median) (back skin of SD rat): 1 min

CCCCCCCCCC[N+](CCCCCCCC)(CCCCCCCCCCCN1CCCCC1C(=O)Nc1c(C)cc(C)cc1C)CC(=O)Nc1c(C)cccc1C (stereo not shown) [Example 24 product]
Duration of motor block (rat's sciatic nerve): 11 h
Local anesthesia onset time (rat's sciatic nerve): 4 min
Duration of sensory block (rat's sciatic nerve): 54 h
Duration of local anesthesia (median) (back skin of SD rat): 89 h
Local anesthesia onset time (median) (back skin of SD rat): 2 min

CCOCCC[N+](CCCCCCN1CCCCC1C(=O)Nc1c(C)cccc1C)(CCCOCC)CC(=O)Nc1c(C)cccc1C.[Br-] (stereo not shown) [Example 22 product]
Duration of motor block (rat's sciatic nerve): 15 h
Local anesthesia onset time (rat's sciatic nerve): 3 min
Duration of sensory block (rat's sciatic nerve): 47 h
Duration of local anesthesia (median) (back skin of SD rat): 63 h
Local anesthesia onset time (median) (back skin of SD rat): 2 min

Cc1cccc(C)c1NC(=O)C[N+](CCO)(CCCCO)CCCCCCN1CCCC1C(=O)Nc1c(C)cccc1C (stereo not shown) [Example 60 product]
Duration of motor block (rat's sciatic nerve): 20 h
Local anesthesia onset time (rat's sciatic nerve): 1 min
Duration of sensory block (rat's sciatic nerve): 54 h
Duration of local anesthesia (median) (back skin of SD rat): 66 h
Local anesthesia onset time (median) (back skin of SD rat): 2 min

CCCCC[N+](CCO)(CCCCCCN1CCCCC1C(=O)Nc1c(C)cccc1C)CC(=O)Nc1c(C)cccc1C.[Br-] (stereo not shown) [Example 13 product]
Duration of motor block (rat's sciatic nerve): 14 h
Local anesthesia onset time (rat's sciatic nerve): 4 min
Duration of sensory block (rat's sciatic nerve): 55 h
Duration of local anesthesia (median) (back skin of SD rat): 53 h
Local anesthesia onset time (median) (back skin of SD rat): 4 min

Cc1cccc(C)c1NC(=O)C[N+](CCCCO)(CCCCO)CCCCCCN1CCC1C(=O)Nc1c(C)cccc1C (stereo not shown) [Example 66 product]
Duration of motor block (rat's sciatic nerve): 10 h
Local anesthesia onset time (rat's sciatic nerve): 1 min
Duration of sensory block (rat's sciatic nerve): 60 h
Duration of local anesthesia (median) (back skin of SD rat): 87 h
Local anesthesia onset time (median) (back skin of SD rat): 1 min

CCOCC[N+](CCO)(CCCCCCN1CCCC1C(=O)Nc1c(C)cccc1C)CC(=O)Nc1c(C)cccc1C (stereo not shown) [Example 61 product]
Duration of motor block (rat's sciatic nerve): 11 h
Local anesthesia onset time (rat's sciatic nerve): 3 min
Duration of local anesthesia (median) (back skin of SD rat): 86 h
Local anesthesia onset time (median) (back skin of SD rat): 1 min

CCCCC[N+](CCO)(CCCCCCN1CCCC1C(=O)Nc1c(C)cccc1C)CC(=O)Nc1c(C)cccc1C (stereo not shown) [Example 59 product]
Duration of motor block (rat's sciatic nerve): 15 h
Local anesthesia onset time (rat's sciatic nerve): 1 min
Duration of sensory block (rat's sciatic nerve): 54 h
Duration of local anesthesia (median) (back skin of SD rat): 72 h
Local anesthesia onset time (median) (back skin of SD rat): 1 min

Cc1cccc(C)c1NC(=O)C[N+]1(CCCCN2CCCCC2C(=O)Nc2c(C)cccc2C)CCOCC1C (stereo not shown) [Example 49 product]
Duration of motor block (rat's sciatic nerve): 20 h
Local anesthesia onset time (rat's sciatic nerve): 4 min
Duration of sensory block (rat's sciatic nerve): 45 h
Duration of local anesthesia (median) (back skin of SD rat): 62 h
Local anesthesia onset time (median) (back skin of SD rat): 1 min

Cc1cccc(C)c1NC(=O)C[N+](CCCCO)(CCCCO)CCCCCCCCN1CCCCCCC1C(=O)Nc1c(C)cccc1C (stereo not shown) [Example 44 product]
Duration of motor block (rat's sciatic nerve): 16 h
Local anesthesia onset time (rat's sciatic nerve): 5 min
Duration of sensory block (rat's sciatic nerve): 69 h
Duration of local anesthesia (median) (back skin of SD rat): 51 h
Local anesthesia onset time (median) (back skin of SD rat): 2 min

CCCCC[N+](CCCCS)(CCCCCCCN1CCCCCC1C(=O)Nc1c(C)cccc1C)CC(=O)Nc1c(C)cccc1C (stereo not shown) [Example 69 product]
Duration of motor block (rat's sciatic nerve): 10 h
Local anesthesia onset time (rat's sciatic nerve): 1 min
Duration of sensory block (rat's sciatic nerve): 62 h
Duration of local anesthesia (median) (back skin of SD rat): 80 h
Local anesthesia onset time (median) (back skin of SD rat): 1 min

CCCCC[N+](CCCCCCN1CCC1C(=O)Nc1c(C)cccc1C)(CCSCC)CC(=O)Nc1c(C)cccc1C (stereo not shown) [Example 63 product]
Duration of motor block (rat's sciatic nerve): 14 h
Local anesthesia onset time (rat's sciatic nerve): 3 min
Duration of sensory block (rat's sciatic nerve): 64 h
Duration of local anesthesia (median) (back skin of SD rat): 79 h
Local anesthesia onset time (median) (back skin of SD rat): 1 min

Cc1cccc(C)c1NC(=O)C[N+]1(CCCSCCCN2CCCCC2C(=O)Nc2c(C)cccc2C)CC(C)OC(C)C1 (stereo not shown) [Example 58 product]
Duration of motor block (rat's sciatic nerve): 16 h
Local anesthesia onset time (rat's sciatic nerve): 3 min
Duration of sensory block (rat's sciatic nerve): 57 h
Duration of local anesthesia (median) (back skin of SD rat): 71 h
Local anesthesia onset time (median) (back skin of SD rat): 2 min

CCCCCCCC[N+](CCCCCCC)(CCCN1CCCCC1C(=O)Nc1c(C)cccc1C)CC(=O)Nc1c(C)cccc1C (stereo not shown) [Example 74 product]
Duration of motor block (rat's sciatic nerve): 17 h
Local anesthesia onset time (rat's sciatic nerve): 1 min
Duration of sensory block (rat's sciatic nerve): 72 h
Duration of local anesthesia (median) (back skin of SD rat): 56 h
Local anesthesia onset time (median) (back skin of SD rat): 1 min

Cc1cccc(C)c1NC(=O)C[N+]1(CCCCN2CCCCC2C(=O)Nc2c(C)cccc2C)C(C)COCC1C (stereo not shown) [Example 51 product]
Duration of motor block (rat's sciatic nerve): 19 h
Local anesthesia onset time (rat's sciatic nerve): 5 min
Duration of sensory block (rat's sciatic nerve): 44 h
Duration of local anesthesia (median) (back skin of SD rat): 89 h
Local anesthesia onset time (median) (back skin of SD rat): 1 min

Source: patent US20220135526A1, “QUATERNARY AMMONIUM SALT COMPOUND, PREPARATION METHOD THEREFOR AND USE THEREOF” (WEST CHINA HOSPITAL, SICHUAN UNIVERSITY, priority 2019, published 2022)
